Source: patent US10233173B2, “Substituted 1,2,3-triazoles as NR2B-selective NMDA modulators” (JANSSEN PHARMACEUTICA NV, priority 2016, dated 2019)

Molecular target: human GluN1/GluN2B NMDA receptors (Homo sapiens, UniProt Q05586+Q13224)
Assay: Cell-based calcium flux (FLIPR) assay on cloned human NR1/NR2B ion channels expressed in mammalian cells
Conditions: standard assay; human GluN1/GluN2B, calcium flux (FLIPR), glutamate ~EC80
How it was run: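 Calcium influx followed by FLIPR fluorescence after 5 min compound exposure and a further 5 min co-agonist challenge: 10 μM glycine with glutamate at ~EC80 (standard) or EC40 (HTS).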

human GluN1/GluN2B NMDA receptors, sequence (Q13224 27-1484, other chains not shown): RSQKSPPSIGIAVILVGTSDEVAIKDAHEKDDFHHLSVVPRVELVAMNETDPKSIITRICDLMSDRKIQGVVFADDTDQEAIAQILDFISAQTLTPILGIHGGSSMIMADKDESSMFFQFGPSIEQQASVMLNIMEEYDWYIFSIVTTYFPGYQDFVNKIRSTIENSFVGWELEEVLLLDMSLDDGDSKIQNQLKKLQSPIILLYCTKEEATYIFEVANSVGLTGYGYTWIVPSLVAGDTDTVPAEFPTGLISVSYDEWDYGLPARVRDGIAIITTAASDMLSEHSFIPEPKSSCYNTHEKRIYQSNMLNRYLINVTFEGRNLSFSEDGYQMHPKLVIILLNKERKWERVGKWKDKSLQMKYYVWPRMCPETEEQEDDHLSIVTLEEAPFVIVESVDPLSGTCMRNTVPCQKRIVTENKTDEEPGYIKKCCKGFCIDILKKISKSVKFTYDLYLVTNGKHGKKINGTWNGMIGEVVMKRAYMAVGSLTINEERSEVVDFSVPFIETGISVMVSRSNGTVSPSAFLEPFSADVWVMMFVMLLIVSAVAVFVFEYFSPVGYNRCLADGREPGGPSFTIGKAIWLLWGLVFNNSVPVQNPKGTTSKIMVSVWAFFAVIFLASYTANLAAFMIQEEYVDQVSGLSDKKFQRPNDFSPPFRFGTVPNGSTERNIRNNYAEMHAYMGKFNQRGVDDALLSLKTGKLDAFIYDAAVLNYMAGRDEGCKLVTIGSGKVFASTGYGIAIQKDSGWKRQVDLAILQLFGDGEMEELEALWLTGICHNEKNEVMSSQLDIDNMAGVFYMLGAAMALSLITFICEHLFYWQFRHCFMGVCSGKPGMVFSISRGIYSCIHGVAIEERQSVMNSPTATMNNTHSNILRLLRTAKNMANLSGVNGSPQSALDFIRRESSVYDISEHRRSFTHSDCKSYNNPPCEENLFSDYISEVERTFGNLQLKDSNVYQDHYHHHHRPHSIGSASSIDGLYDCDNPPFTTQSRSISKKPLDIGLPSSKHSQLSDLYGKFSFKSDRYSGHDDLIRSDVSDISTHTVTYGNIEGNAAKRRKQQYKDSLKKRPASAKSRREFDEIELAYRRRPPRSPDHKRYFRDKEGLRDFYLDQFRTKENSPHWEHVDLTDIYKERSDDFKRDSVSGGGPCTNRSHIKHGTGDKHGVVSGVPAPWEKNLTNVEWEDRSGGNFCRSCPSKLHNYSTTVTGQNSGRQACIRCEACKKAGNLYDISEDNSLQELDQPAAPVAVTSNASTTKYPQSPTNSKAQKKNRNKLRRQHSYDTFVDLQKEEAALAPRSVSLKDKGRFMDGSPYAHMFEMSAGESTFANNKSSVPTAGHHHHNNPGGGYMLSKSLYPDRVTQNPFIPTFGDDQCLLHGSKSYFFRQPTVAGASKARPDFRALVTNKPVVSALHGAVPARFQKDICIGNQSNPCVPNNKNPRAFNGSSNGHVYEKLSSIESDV

SMILES	IC50 [µM]
Cc1cnc(OCc2cn(-c3ccnc(Br)c3)nn2)nc1 [Example 177, 2-[[1-(2-Bromo-4-pyridyl)triazol-4-yl]methoxy]-5-methyl-pyrimidine]	0.172
CC(C)(O)c1cnc(OCc2cn(-c3ccc(F)c(C4CCC4)c3)nn2)nc1 [Example 178, 2-[2-[[1-(3-Cyclobutyl-4-fluoro-phenyl)triazol-4-yl]methoxy]pyrimidin-5-yl]propan-2-ol]	0.349
CC(C)c1cc(-n2cc(COc3ncc(C(C)(C)O)cn3)nn2)ccc1F [Example 179, 2-[2-[[1-(4-Fluoro-3-isopropyl-phenyl)triazol-4-yl]methoxy]pyrimidin-5-yl]propan-2-ol]	0.029
CC(C)(O)c1cnc(OCc2cn(-c3ccc(F)c(C4CC4)c3)nn2)nc1 [Example 180, 2-[2-[[1-(3-Cyclopropyl-4-fluoro-phenyl)triazol-4-yl]methoxy]pyrimidin-5-yl]propan-2-ol]	0.133
Cc1cc(-n2cc(COc3ncc(C(C)(C)O)cn3)nn2)ccc1F [Example 181, 2-[2-[[1-(4-Fluoro-3-methyl-phenyl)triazol-4-yl]methoxy]pyrimidin-5-yl]propan-2-ol]	0.097
CCc1cc(-n2cc(COc3ncc(C(C)(C)O)cn3)nn2)ccc1F [Example 182, 2-[2-[[1-(3-Ethyl-4-fluoro-phenyl)triazol-4-yl]methoxy]pyrimidin-5-yl]propan-2-ol]	0.027
CC(F)(F)c1cc(-n2cc(COc3ncc(Br)cn3)nn2)ccc1F [Example 183, 5-Bromo-2-[[1-[3-(1,1-difluoroethyl)-4-fluoro-phenyl]triazol-4-yl]methoxy]pyrimidine]	0.009
Cn1ccc(-c2cnc(OCc3cn(-c4ccc(F)c(C(C)(F)F)c4)nn3)nc2)n1 [Example 184, 2-[[1-[3-(1,1-Difluoroethyl)-4-fluoro-phenyl]triazol-4-yl]methoxy]-5-(1-methylpyrazol-3-yl)pyrimidine]	0.309
CC(F)(F)c1cc(-n2cc(COc3ncc(-c4cn[nH]c4)cn3)nn2)ccc1F [Example 185, 2-[[1-[3-(1,1-Difluoroethyl)-4-fluoro-phenyl]triazol-4-yl]methoxy]-5-(1H-pyrazol-4-yl)pyrimidine]	0.166
CC(F)(F)c1cc(-n2cc(COc3nccc(-c4cn[nH]c4)n3)nn2)ccc1F [Example 186, 2-[[1-[3-(1,1-Difluoroethyl)-4-fluoro-phenyl]triazol-4-yl]methoxy]-4-(1H-pyrazol-4-yl)pyrimidine]	1.36
CC(F)(F)c1cc(-n2cc(COc3ncc(N4CCOCC4)cn3)nn2)ccc1F [Example 187, 4-(2-((1-(3-(1,1-Difluoroethyl)-4-fluorophenyl)-1H-1,2,3-triazol-4-yl)methoxy)pyrimidin-5-yl)morpholine]	0.088
FC(F)c1cc(-n2cc(COc3ncccn3)nn2)ccc1N1CCC1 [Example 188, 2-((1-(4-(Azetidin-1-yl)-3-(difluoromethyl)phenyl)-1H-1,2,3-triazol-4-yl)methoxy)pyrimidine]	4.58
Fc1cnc(OCc2cn(-c3ccc(Cl)c(OC(F)F)c3)nn2)cn1 [Example 189, 2-[[1-[4-Chloro-3-(difluoromethoxy)phenyl]triazol-4-yl]methoxy]-5-fluoro-pyrazine]	1.46
FC(F)Oc1cc(-n2cc(COc3nccc(Cl)n3)nn2)ccc1Cl [Example 190, 4-Chloro-2-[[1-[4-chloro-3-(difluoromethoxy)phenyl]triazol-4-yl]methoxy]pyrimidine]	0.026
Fc1ccnc(OCc2cn(-c3ccc(Cl)c(OC(F)F)c3)nn2)n1 [Example 191, 2-[[1-[4-Chloro-3-(difluoromethoxy)phenyl]triazol-4-yl]methoxy]-4-fluoro-pyrimidine]	0.023
FCCOc1cnc(OCc2cn(-c3ccc(Cl)c(OC(F)F)c3)nn2)nc1 [Example 192, 2-[[1-[4-Chloro-3-(difluoromethoxy)phenyl]triazol-4-yl]methoxy]-5-(2-fluoroethoxy)pyrimidine]	0.03
COc1cnc(OCc2cn(-c3ccc(Cl)c(OCCF)c3)nn2)nc1 [Example 193, 2-[[1-[4-Chloro-3-(2-fluoroethoxy)phenyl]triazol-4-yl]methoxy]-5-methoxy-pyrimidine]	0.089
COc1cnc(OCc2cn(-c3ccc(F)c(CCCF)c3)nn2)nc1 [Example 194, 2-[[1-[4-Fluoro-3-(3-fluoropropyl)phenyl]triazol-4-yl]methoxy]-5-methoxy-pyrimidine]	0.061
COc1cnc(OCc2cn(-c3ccc(F)c(CCCCl)c3)nn2)nc1 [Example 195, 2-[[1-[3-(3-Chloropropyl)-4-fluoro-phenyl]triazol-4-yl]methoxy]-5-methoxy-pyrimidine]	0.136
FCCCc1cnc(OCc2cn(-c3ccc(Cl)c(OC(F)F)c3)nn2)nc1 [Example 196, 2-[[1-[4-Chloro-3-(difluoromethoxy)phenyl]triazol-4-yl]methoxy]-5-(3-fluoropropyl)pyrimidine]	0.024

SMILES	IC50 [µM]
Fc1cnc(NCc2cn(-c3cccc(C(F)F)c3)nn2)nc1 [Example 197, N-[[1-[3-(Difluoromethyl)phenyl]triazol-4-yl]methyl]-5-fluoro-pyrimidin-2-amine]	0.652
Cc1cnc(NCc2cn(-c3ccc(F)c(C)c3)nn2)nc1 [Example 198, N-[[1-(4-Fluoro-3-methyl-phenyl)triazol-4-yl]methyl]-5-methyl-pyrimidin-2-amine]	0.147
Cc1cc(-n2cc(CNc3ncc(Cl)c(C)n3)nn2)ccc1F [Example 199, 5-Chloro-N-[[1-(4-fluoro-3-methyl-phenyl)triazol-4-yl]methyl]-4-methyl-pyrimidin-2-amine]	0.051
FC(F)c1cc(-n2cc(CNc3ncc(Cl)cn3)nn2)ccc1Cl [Example 200, 5-Chloro-N-[[1-[4-chloro-3-(difluoromethyl)phenyl]triazol-4-yl]methyl]pyrimidin-2-amine]	0.131
Cc1ccnc(NCc2cn(-c3ccc(Cl)c(C(F)F)c3)nn2)n1 [Example 201, N-[[1-[4-Chloro-3-(difluoromethyl)phenyl]triazol-4-yl]methyl]-4-methyl-pyrimidin-2-amine]	0.1
CCc1cnc(NCc2cn(-c3ccc(Cl)c(C(F)F)c3)nn2)nc1 [Example 202, N-[[1-[4-Chloro-3-(difluoromethyl)phenyl]triazol-4-yl]methyl]-5-ethyl-pyrimidin-2-amine]	0.044
COc1cnc(NCc2cn(-c3ccc(Cl)c(C(F)F)c3)nn2)nc1 [Example 203, N-[[1-[4-Chloro-3-(difluoromethyl)phenyl]triazol-4-yl]methyl]-5-methoxy-pyrimidin-2-amine]	0.03
FC(F)c1cnc(NCc2cn(-c3ccc(Cl)c(C(F)F)c3)nn2)nc1 [Example 204, N-[[1-[4-Chloro-3-(difluoromethyl)phenyl]triazol-4-yl]methyl]-5-(difluoromethyl)pyrimidin-2-amine]	0.24
FC(F)c1cc(-n2cc(CNc3ncc(C(F)(F)F)cn3)nn2)ccc1Cl [Example 205, N-[[1-[4-Chloro-3-(difluoromethyl)phenyl]triazol-4-yl]methyl]-5-(trifluoromethyl)pyrimidin-2-amine]	0.616
Cc1cnc(NCc2cn(-c3ccc(F)c(C(C)(F)F)c3)nn2)nc1 [Example 206, N-[[1-[3-(1,1-Difluoroethyl)-4-fluoro-phenyl]triazol-4-yl]methyl]-5-methyl-pyrimidin-2-amine]	0.219
CCc1cnc(NCc2cn(-c3ccc(F)c(C(C)(F)F)c3)nn2)nc1 [Example 207, N-[[1-[3-(1,1-Difluoroethyl)-4-fluoro-phenyl]triazol-4-yl]methyl]-5-ethyl-pyrimidin-2-amine]	0.128
CC(C)c1cnc(NCc2cn(-c3ccc(F)c(C(C)(F)F)c3)nn2)nc1 [Example 208, N-[[1-[3-(1,1-Difluoroethyl)-4-fluoro-phenyl]triazol-4-yl]methyl]-5-isopropyl-pyrimidin-2-amine]	0.581
CC(F)(F)c1cc(-n2cc(CNc3ncc(C4CC4)cn3)nn2)ccc1F [Example 209, 5-Cyclopropyl-N-[[1-[3-(1,1-difluoroethyl)-4-fluoro-phenyl]triazol-4-yl]methyl]pyrimidin-2-amine]	0.104
Cc1cnc(NCc2cn(-c3ccc(F)c(C(C)(F)F)c3)nn2)nc1C [Example 210, N-[[1-[3-(1,1-Difluoroethyl)-4-fluoro-phenyl]triazol-4-yl]methyl]-4,5-dimethyl-pyrimidin-2-amine]	0.05
Cc1cnc(NCc2cn(-c3ccc(F)c(C(F)F)c3)nn2)nc1 [Example 211, N-[[1-[3-(Difluoromethyl)-4-fluoro-phenyl]triazol-4-yl]methyl]-5-methyl-pyrimidin-2-amine]	0.049
Fc1ccc(-n2cc(CNc3ncc(Cl)cn3)nn2)cc1C(F)F [Example 212, 5-Chloro-N-[[1-[3-(difluoromethyl)-4-fluoro-phenyl]triazol-4-yl]methyl]pyrimidin-2-amine]	0.074
Fc1ccc(-n2cc(CNc3ncc(C(F)(F)F)cn3)nn2)cc1C(F)F [Example 213, N-[[1-[3-(Difluoromethyl)-4-fluoro-phenyl]triazol-4-yl]methyl]-5-(trifluoromethyl)pyrimidin-2-amine]	0.108
CC(C)(O)c1cnc(NCc2cn(-c3ccc(F)c(C(F)F)c3)nn2)nc1 [Example 214, 2-[2-[[1-[3-(Difluoromethyl)-4-fluoro-phenyl]triazol-4-yl]methylamino]pyrimidin-5-yl]propan-2-ol]	0.654
Fc1ccc(-n2cc(CNc3ccccn3)nn2)cc1C(F)F [Example 215, N-((1-(3-(Difluoromethyl)-4-fluorophenyl)-1H-1,2,3-triazol-4-yl)methyl)pyridin-2-amine]	0.986
CCc1cnc(NCc2cn(-c3ccc(F)c(C(F)F)c3)nn2)nc1 [Example 216, N-((1-(3-(Difluoromethyl)-4-fluorophenyl)-1H-1,2,3-triazol-4-yl)methyl)-5-ethylpyrimidin-2-amine]	0.026
